Where “and” joins values, the source holds several entries; their conditions need not be identical. Equal values may be shown once.
How the values were obtained:
[1] = test system: Normal Human Dermal Papilla Cells; assay: DNA synthesis ([H]3-thymidine incorporation) in dermal papilla cells; type: cell-based; details: for [H] counts to denote incorporated Thymidine (relative DNA synthesis): individual replicates
Experimental: Methods: Normal Human Dermal Papilla Cells were obtained from Cell Applications Incorporated (San Diego, Calif.) which isolates the dermal papilla cells from hair plugs. Papilla cells were grown to 70% in 24 well plates. […] These treatments were carried out for 24 hours before [H]^3-Thymidine label (1 μCi/ml) was added in each well. DNA synthesis, an indicator of cell proliferation, was measured 24 hours later as a function of [H]^3-Thymidine incorporation.

hair plugs = assay: Hair growth in hair plugs exposed to creatine; type: cell-based; details: creatine 1 mM; for Actual length of hair plugs / Hair growth normalized to length at day 0: individual plugs; for Average hair growth: n=6
Experimental: Methods: Hair plugs were obtained from East Wood Medical Hair Transplant Surgery (Garden City, N.Y.). These hair plugs were equilibrated in hair plug media as described in the literature (DMEM, 10% FBS, 1% PS, 25 mg insulin, 25 μg fungizone). These hair plugs were measured under the microscope one the first day of arrival and treated with creatine at 1 mM (n=6 for control and creatine group respectively). These hair plugs were then kept in the incubator at 37° C. in 5% CO2. On day 3, 7, & 10, re-treatments were made as well as measurements.

SMILES | % increase compared to control (thymidine uptake / DNA synthesis) ([1]; 0.25 mM) | % increase compared to control (thymidine uptake / DNA synthesis) ([1]; 0.5 mM) | Average thymidine uptake ([1]; 0.25 mM) | [H] counts to denote incorporated Thymidine (relative DNA synthesis) ([1]; 0.25 mM) | Average thymidine uptake ([1]; 0.5 mM) | [H] counts to denote incorporated Thymidine (relative DNA synthesis) ([1]; 0.5 mM) | % increase compared to control (thymidine uptake / DNA synthesis) ([1]; 1 mM) | Average thymidine uptake ([1]; 1 mM) | [H] counts to denote incorporated Thymidine (relative DNA synthesis) ([1]; 1 mM) | further results
Nc1ncnc2c1ncn2[C@@H]1O[C@H](COP(=O)(O)OP(=O)(O)OP(=O)(O)O)[C@@H](O)[C@H]1O [ATP] | 1411% | 1201% | – | – | – | – | – | – | – | –
CN(CC(=O)O)C(=N)N [Creatine, creatine] | 35.66% | 24.78% | 25229.47 | 27441.5 counts and 24848.2 counts and 23398.7 counts | 23206.37 | 21850.6 counts and 23029.9 counts and 24738.6 counts | 5.697% | 19657.6 | 20190.6 counts and 18789.8 counts and 19992.4 counts | % increase compared to control (thymidine uptake / DNA synthesis) ([1]; 0.25 mM, listed as creatine): 36%; % increase compared to control (thymidine uptake / DNA synthesis) ([1]; 0.5 mM, listed as creatine): 25%; % increase compared to control (thymidine uptake / DNA synthesis) ([1]; 1 mM, listed as creatine): 6%; Actual length of hair plugs (hair plugs; Day 0 (baseline)): 3.8 mm and 6.3 mm and 8.1 mm and 8.3 mm and 8.2 mm and 7.6 mm; Average hair growth (hair plugs; Day 0): 0 mm; % increase compared to untreated (hair growth) (hair plugs; Day 3): 96.6%; Actual length of hair plugs (hair plugs; Day 3): 4.7 mm and 7.1 mm and 9.5 mm and 9.1 mm (2×) and 8.5 mm; Hair growth normalized to length at day 0 (hair plugs; Day 3): 0.9 mm (3×) and 0.8 mm (2×) and 1.4 mm; Average hair growth (hair plugs; Day 3): 0.95 mm; % increase compared to untreated (hair growth) (hair plugs; Day 7): 79.5%; Actual length of hair plugs (hair plugs; Day 7): 5 mm and 7 mm and 9.6 mm (2×) and 9.8 mm and 9.2 mm; Hair growth normalized to length at day 0 (hair plugs; Day 7): 1.2 mm and 0.7 mm and 1.5 mm and 1.3 mm and 1.6 mm (2×); Average hair growth (hair plugs; Day 7): 1.32 mm and 1.317 mm; % increase compared to untreated (hair growth) (hair plugs; Day 10): 75.5%; Actual length of hair plugs (hair plugs; Day 10): 5.5 mm and 7 mm and 9.7 mm (2×) and 9.8 mm and 9.2 mm; Hair growth normalized to length at day 0 (hair plugs; Day 10): 1.7 mm and 0.7 mm and 1.6 mm (3×) and 1.4 mm; Average hair growth (hair plugs; Day 10): 1.43 mm and 1.433 mm; Increase in hair growth compared to the untreated plugs (hair plugs; over 10 days): two fold
Nc1ncnc2c1ncn2[C@@H]1O[C@H](COP(=O)(O)O)[C@@H](O)[C@H]1O [AMP] | 1493% | 1930% | – | – | – | – | 1449% | – | – | –
O=C(O)CC(=O)C(=O)O [Oxaloacetate, oxaloacetic acid (oxaloacetate)] | 22% | 33% | 22609.37 | 26907.8 counts and 21897.4 counts and 19022.9 counts | 24782.97 | 24483.7 counts and 21467.8 counts and 28397.4 counts | 38% | 25586.67 | 25537.3 counts and 25092.4 counts and 26130.3 counts | % increase compared to control (thymidine uptake / DNA synthesis) ([1]; 0.25 mM, listed as Oxal): 21.57%; % increase compared to control (thymidine uptake / DNA synthesis) ([1]; 0.5 mM, listed as Oxal): 33.26%; % increase compared to control (thymidine uptake / DNA synthesis) ([1]; 1 mM, listed as Oxal): 37.58%
